According to US11629171B2, “Beta-hairpin peptidomimetics” (POLYPHOR AG, priority 2017, dated 2023):
Converted amounts (≈) assume the structure as drawn. Where a SMILES comes first, the peptide text is derived from it. Bridges are numbered along the chain shown (N, C = ends). Roman numbers before positions name the chains, in order. [ ]: non-standard residue; d: D form. The star is where a group is joined. Heptanoyl(6-Me) = CC(C)CCCCC(=O)*; Tle = CC(C)(C)[C@H](N)C(=O)O; dDab = NCC[C@@H](N)C(=O)O; hSer = N[C@@H](CCO)C(=O)O; Dab = NCC[C@H](N)C(=O)O; Nva = CCC[C@H](N)C(=O)O; Dap = NC[C@H](N)C(=O)O

Key:
Format in all cases: cell-based
[1] = test system: Acinetobacter baumannii 872842; settings: 872842
Description: (§1) The in vitro antimicrobial activities of the peptides were determined in 96-well plates (Greiner, polystyrene) by the standard CLSI broth microdilution method (Clinical and Laboratory Standards Institute 2014. Performance standards for antimicrobial susceptibility testing, 24th informational supplement. Approved standard CLSI M100-S24; Clinical and Laboratory Standards Institute, Wayne, Pa.). The following microorganisms were used to determine antibiotic activity of the peptides: Escherichia coli ATCC 25922, Klebsiella pneumoniae SSI #3010^a), Acinetobacter baumannii DSM 30008, Pseudomonas aeruginosa ATCC 27853 and the clinical isolates Escherichia coli 926415^b), Klebsiella pneumoniae 968733^b), Acinetobacter baumannii 872842^b), Enterobacter cloacae 848840^b) and Escherichia coli MCR-1 Af45^c). Before preparation of inocula, Escherichia coli MCR-1 Af45 was subcultured on Mueller-Hinton II (MH-cation adjusted) agar containing 2 μg/mL colistin. ^a) Obtained from Statens Serum Institut (SSI), Copenhagen, Denmark^b) Obtained from International Health Management Associates, Inc. (IHMA Europe Sàrl), Epalinges, Switzerland^c) Obtained from Prof. Patrice Nordmann, University of Fribourg, Fribourg, Switzerland
(§2) Inocula of the microorganisms were diluted into Mueller-Hinton II (MH-cation adjusted) broth and compared with a 0.5 McFarland standard to give appr. 10^6 colony forming units (CFU)/mL. Aliquots (90 μL) of inoculum were added to 10 μL of MH-II broth+P-80 (Polysorbate 80, 0.002% final concentration, v/v) containing the peptide in serial two-fold dilutions. Antimicrobial activities of the peptides were expressed as the minimal inhibitory concentration (MIC) in μg/mL at which no visible growth was observed after 18-20 hours of incubation at 35° C.

[2] = test system: Acinetobacter baumannii DSM 30008; settings: DSM 30008
Description: as §1, §2

[3] = test system: Enterobacter cloacae 848840; settings: 848840
Description: as §1, §2

Escherichia coli 926415 = settings: 926415
Description: as §1, §2

[4] = test system: Escherichia coli ATCC 25922; settings: ATCC 25922
Description: as §1, §2

[5] = test system: Klebsiella pneumoniae 968733; settings: 968733
Description: as §1, §2

[6] = test system: Klebsiella pneumoniae SSI #3010; settings: SSI #3010
Description: as §1, §2

[7] = test system: Pseudomonas aeruginosa ATCC 27853; settings: ATCC 27853
Description: as §1, §2

[8] = test system: human red blood cells (hRBC); assay: Hemolysis; settings: red cells of human, 1 h, 200
In short: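 Washed fresh human RBC (20% v/v) incubated with peptide at 200 μg/mL for 1 h at 37° C with shaking. Supernatant OD540 measured after dilution, blank corrected; percent hemolysis = OD540 peptide / OD540 of 2% Triton X-100 lysis × 100, PBS with 10% water as 0%.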

Row | MIC [1] [µg/mL] | Acinetobacter baumannii DSM 30008 MIC [2] [µg/mL] | MIC [3] [µg/mL] | MIC (Escherichia coli 926415) [µg/mL] | Escherichia coli ATCC 25922 MIC [4] [µg/mL] | MIC [5] [µg/mL] | Klebsiella pneumoniae SSI #3010 MIC [6] [µg/mL] | Pseudomonas aeruginosa ATCC 27853 MIC [7] [µg/mL] | MIC [2] [µg/mL] | MIC [4] [µg/mL] | MIC [6] [µg/mL] | MIC [7] [µg/mL] | Structure (SMILES) | Hemolysis at 200 μg/mL [8] [%]
1 | 0.125 (≈ 0.0524 µM) | 0.03125 | 0.0625 (≈ 0.0262 µM) | 0.125 (≈ 0.0524 µM) | 0.01562 | 0.125 (≈ 0.0524 µM) | 0.0625 | 0.125 |  |  |  |  | CCC[C@@H]1NC(=O)[C@@H](CC(C)C)NC(=O)[C@H](CCN)NC(=O)[C@@H](NC(=O)[C@H](CN)NC(=O)[C@@H](NC(=O)[C@H](CCN)NC(=O)CC[C@@H]2NC(=O)[C@H](CCN)NC(=O)[C@H](Cc3ccc(O)cc3)NC(=O)[C@@H](NC(=O)[C@@H](NC(C)=O)C(C)C)CSSC[C@@H](C(=O)N[C@@H](CO)C(N)=O)NC(=O)[C@H](C(C)C)NC(=O)[C@H](CO)NC(=O)[C@H](Cc3c[nH]c4ccccc34)NC(=O)[C@H](CO)NC(=O)[C@@H](CCN)NC2=O)[C@@H](C)O)CCNC(=O)[C@H]([C@@H](C)O)NC(=O)[C@H](CCN)NC(=O)[C@H](CCN)NC1=O [Ex. 313] (I: Ac-VCY[Dab]E[dDab]SWSVCS-NH2 / II: [Dab]T[Dap][Dab][Dab][dL][Nva][Dab][Dab]T; disulfide I:2-I:11; amide I:5-II:N; lactam II:4-II:C) | <1
2 | 0.125 (≈ 0.0515 µM) |  | 0.125 (≈ 0.0515 µM) | 0.125 (≈ 0.0515 µM) |  | 0.5 (≈ 0.206 µM) |  |  | 0.0625 (≈ 0.0257 µM) | 0.0625 (≈ 0.0257 µM) | 0.125 (≈ 0.0515 µM) | 0.125 (≈ 0.0515 µM) | CC(=O)N[C@H](C(=O)N[C@H]1CSSC[C@@H](C(=O)N[C@@H](CO)C(N)=O)NC(=O)[C@H](C(C)(C)C)NC(=O)[C@H](CO)NC(=O)[C@H](Cc2c[nH]c3ccccc23)NC(=O)[C@H]([C@@H](C)O)NC(=O)[C@@H](CCN)NC(=O)[C@H](CCC(=O)N[C@@H](CCN)C(=O)N[C@H](C(=O)N[C@@H](CCN)C(=O)N[C@H]2CCNC(=O)[C@H]([C@@H](C)O)NC(=O)[C@H](CCN)NC(=O)[C@H](CCN)NC(=O)[C@H](CC(C)C)NC(=O)[C@@H](CC(C)C)NC(=O)[C@H](CCN)NC2=O)[C@@H](C)O)NC(=O)[C@H](CO)NC(=O)[C@H](Cc2ccc(O)cc2)NC1=O)C(C)C [Ex. 46] (I: Ac-VCYSE[dDab]TWS[Tle]CS-NH2 / II: [Dab]T[Dab][Dab][Dab][dL]L[Dab][Dab]T; disulfide I:2-I:11; amide I:5-II:N; lactam II:4-II:C) | 2
3 | 0.5 (≈ 0.198 µM) |  | 0.5 (≈ 0.198 µM) | 1 (≈ 0.396 µM) |  | 0.25 (≈ 0.099 µM) |  |  | 1 (≈ 0.396 µM) | 0.125 (≈ 0.0495 µM) | 0.5 (≈ 0.198 µM) | 0.25 (≈ 0.099 µM) | CC(C)CCCCC(=O)N[C@H](C(=O)N[C@H]1CSSC[C@@H](C(=O)N[C@@H](CO)C(N)=O)NC(=O)[C@H](C(C)C)NC(=O)[C@H](CCO)NC(=O)[C@H](Cc2c[nH]c3ccccc23)NC(=O)[C@H](CCO)NC(=O)[C@@H](CCN)NC(=O)[C@H](CCC(=O)N[C@@H](CCN)C(=O)N[C@H](C(=O)N[C@@H](CCN)C(=O)N[C@H]2CCNC(=O)[C@H]([C@@H](C)O)NC(=O)[C@H](CCN)NC(=O)[C@H](CCN)NC(=O)[C@H](CC(C)C)NC(=O)[C@@H](CC(C)C)NC(=O)[C@H](CCN)NC2=O)[C@@H](C)O)NC(=O)[C@H](CCN)NC(=O)[C@H](Cc2ccc(O)cc2)NC1=O)C(C)C [Ex. 40] (I: {Heptanoyl(6-Me)}-VCY[Dab]E[dDab][hSer]W[hSer]VCS-NH2 / II: [Dab]T[Dab][Dab][Dab][dL]L[Dab][Dab]T; disulfide I:2-I:11; amide I:5-II:N; lactam II:4-II:C) | 2
4 | 0.0625 (≈ 0.0259 µM) | 0.01562 | 0.125 (≈ 0.0518 µM) | 0.0625 (≈ 0.0259 µM) | 0.01562 | 0.125 (≈ 0.0518 µM) | 0.125 | 0.25 |  |  |  |  | CC(=O)N[C@@H](CC(C)C)C(=O)N[C@H]1CSSC[C@@H](C(=O)N[C@@H](CO)C(N)=O)NC(=O)[C@H](C(C)C)NC(=O)[C@H](CO)NC(=O)[C@H](Cc2c[nH]c3ccccc23)NC(=O)[C@H](CO)NC(=O)[C@@H](CCN)NC(=O)[C@H](CCC(=O)N[C@@H](CCN)C(=O)N[C@H](C(=O)N[C@@H](CN)C(=O)N[C@H]2CCNC(=O)[C@H]([C@@H](C)O)NC(=O)[C@H](CCN)NC(=O)[C@H](CCN)NC(=O)[C@H](CC(C)C)NC(=O)[C@@H](CC(C)C)NC(=O)[C@H](CCN)NC2=O)[C@@H](C)O)NC(=O)[C@H](CCN)NC(=O)[C@H](Cc2ccc(O)cc2)NC1=O [Ex. 314] (I: Ac-LCY[Dab]E[dDab]SWSVCS-NH2 / II: [Dab]T[Dap][Dab][Dab][dL]L[Dab][Dab]T; disulfide I:2-I:11; amide I:5-II:N; lactam II:4-II:C) | 2
5 | 0.0625 (≈ 0.0259 µM) |  | 0.25 (≈ 0.104 µM) | 0.125 (≈ 0.0518 µM) |  | 0.125 (≈ 0.0518 µM) |  |  | 0.0625 (≈ 0.0259 µM) | 0.0625 (≈ 0.0259 µM) | 0.0625 (≈ 0.0259 µM) | 0.125 (≈ 0.0518 µM) | CC(=O)N[C@H](C(=O)N[C@H]1CSSC[C@@H](C(=O)N[C@@H](CO)C(N)=O)NC(=O)[C@H](C(C)C)NC(=O)[C@H](CO)NC(=O)[C@H](Cc2c[nH]c3ccccc23)NC(=O)[C@H](CCN)NC(=O)[C@@H](CCN)NC(=O)[C@H](CCC(=O)N[C@@H](CCN)C(=O)N[C@H](C(=O)N[C@@H](CCN)C(=O)N[C@H]2CCNC(=O)[C@H]([C@@H](C)O)NC(=O)[C@H](CCN)NC(=O)[C@H](CCN)NC(=O)[C@H](CC(C)C)NC(=O)[C@@H](CC(C)C)NC(=O)[C@H](CCN)NC2=O)[C@@H](C)O)NC(=O)[C@H](CO)NC(=O)[C@H](Cc2ccc(O)cc2)NC1=O)C(C)C [Ex. 272] (I: Ac-VCYSE[dDab][Dab]WSVCS-NH2 / II: [Dab]T[Dab][Dab][Dab][dL]L[Dab][Dab]T; disulfide I:2-I:11; amide I:5-II:N; lactam II:4-II:C) | <1
6 | 0.5 (≈ 0.208 µM) | 0.125 | 0.5 (≈ 0.208 µM) | 2 (≈ 0.831 µM) | 0.0625 | 2 (≈ 0.831 µM) | 0.125 | 0.125 |  |  |  |  | CC(=O)N[C@H](C(=O)N[C@H]1CCN(C)C(=O)C[C@@H](C(=O)N[C@@H](CO)C(N)=O)NC(=O)[C@H](C(C)C)NC(=O)[C@H](CO)NC(=O)[C@H](Cc2c[nH]c3ccccc23)NC(=O)[C@H](CO)NC(=O)[C@@H](CCN)NC(=O)[C@H](CCC(=O)N[C@@H](CCN)C(=O)N[C@H](C(=O)N[C@@H](CN)C(=O)N[C@H]2CCNC(=O)[C@H]([C@@H](C)O)NC(=O)[C@H](CCN)NC(=O)[C@H](CCN)NC(=O)[C@H](CC(C)C)NC(=O)[C@@H](CC(C)C)NC(=O)[C@H](CCN)NC2=O)[C@@H](C)O)NC(=O)[C@H](CCN)NC(=O)[C@H](Cc2ccc(O)cc2)NC1=O)C(C)C [Ex. 302] | 3
7 | 0.0625 (≈ 0.0259 µM) |  | 0.125 (≈ 0.0518 µM) | 0.0625 (≈ 0.0259 µM) |  | 0.125 (≈ 0.0518 µM) |  |  | 0.0625 (≈ 0.0259 µM) | 0.03125 (≈ 0.013 µM) | 0.0625 (≈ 0.0259 µM) | 0.0625 (≈ 0.0259 µM) | CC(=O)N[C@H](C(=O)N[C@H]1CSSC[C@@H](C(=O)N[C@H](C(N)=O)[C@@H](C)O)NC(=O)[C@H](C(C)C)NC(=O)[C@H](CO)NC(=O)[C@H](Cc2c[nH]c3ccccc23)NC(=O)[C@H](CCN)NC(=O)[C@@H](CCN)NC(=O)[C@H](CCC(=O)N[C@@H](CCN)C(=O)N[C@H](C(=O)N[C@@H](CN)C(=O)N[C@H]2CCNC(=O)[C@H]([C@@H](C)O)NC(=O)[C@H](CCN)NC(=O)[C@H](CCN)NC(=O)[C@H](CC(C)C)NC(=O)[C@@H](CC(C)C)NC(=O)[C@H](CCN)NC2=O)[C@@H](C)O)NC(=O)[C@H](CO)NC(=O)[C@H](Cc2ccc(O)cc2)NC1=O)C(C)C [Ex. 267] (I: Ac-VCYSE[dDab][Dab]WSVCT-NH2 / II: [Dab]T[Dap][Dab][Dab][dL]L[Dab][Dab]T; disulfide I:2-I:11; amide I:5-II:N; lactam II:4-II:C) | <1
